Results: patent publication US8828925B2, “Etoposide and doxorubicin conjugates for drug delivery” (Angiochem Inc., priority 2008, dated 2014)
Like-named read-outs stand apart in the source and are kept apart here.

Key:
[1] = test system: U87 cells; assay: in vitro cell proliferation assay ([3H]-thymidine incorporation), U87; type: cell-based, human
Procedure: (§1) For the in vitro cell proliferation assay, between 2.5 and 5×10^4 of U87 or SK-HEP-1 cells were seeded in a 24 well tissue culture microplate in a final volume of 1 mL of medium with 10% serum and incubated for 24 hours at 37° C. and 5% CO2. The medium was then replaced with serum-free medium and incubated overnight. The next morning the agent was freshly dissolved in dimethyl sulfoxide (DMSO) and the medium was replaced with complete medium containing the agent at different concentrations in triplicate. The final concentration of DMSO was 0.1%. The control used was a microplate well with cells and without agent. The cells were incubated for 48 to 72 hrs at 37° C. and 5% CO2. After the incubation, the medium was changed and replaced with 1 mL of complete medium containing [^3H]-thymidine (1 pCi/assay). The plate was incubated at 37° C. and 5% CO2 for 4 hrs. The medium as removed, and the cells were washed with PBS at 37° C. The cells were fixed with a mix of ethanol:acetic acid (3:1), washed with water, and precipitated 3 times with 10% of ice-cold TCA (trichloroacetic acid). Finally 500 μL of PCA (perchloric acid) were added to the wells and the microplates were heated for 30 min at 65° C. and 30 min at 75° C. The contents of each well were then transferred to a scintillation vial with 10 mL of scintillation cocktail and the activity was measured in CPM (count per minute) on a liquid scintillation counter Tri-Carb from Packard.

[2] = test system: Lung Carcinoma (NCI-H460); assay: in vitro cell proliferation assay, NCI-H460; type: cell-based; conditions: Table 5
[3] = test system: mouse brain; assay: in situ brain perfusion (brain uptake)
Procedure: (§2) The uptake of [^125I]-polypeptides to the luminal side of mouse brain capillaries was measured using the in situ brain perfusion method adapted in our laboratory for the study of agent uptake in the mouse brain.
(§3) Polypeptides were iodinated with standard procedures using iodo-beads from Sigma. Briefly polypeptides were diluted in 0.1 M phosphate buffer, pH 6.5 (PB). Two iodo-beads were used for each protein. These beads were washed twice with 3 mL of PB on a Whatman filter and re-suspended in 60 of PB. ^125I (1 mCi) from Amersham-Pharmacia biotech was added to the bead suspension for 5 min at room temperature. Each iodination was initiated by the addition of the polypeptide (100 μg). After an incubation of 10 min at room temperature, the free iodine was removed by HPLC.
(§4) Briefly, the right common carotid of ketamine/xylazine (140/8 mg/kg i.p.) anesthetized mice was exposed and ligated at the level of the bifurcation of the common carotid, rostral to the occipital artery. The common carotid was then catheterized rostrally with polyethylene tubing filled with heparin (25 U/mL) and mounted on a 26-gauge needle. The syringe containing the perfusion fluid ([^125I]-polypeptides or [^14C]-inulin in Krebs/bicarbonate buffer at a pH7.4 gassed with 95% O2 and 5% CO2) was placed in an infusion pump (Harvard pump PHD 2000; Harvard Apparatus) and connected to the catheter. Prior to the perfusion, the contralateral blood flow contribution was eliminated by severing heart ventricles. The brain was perfused for the indicated times at a flow rate of 1.15 mL/min. After 14.5 min of perfusion, the brain was further perfused for 60 seconds with Krebs buffer to wash the excess of [^125I]-proteins. Mice were then decapitated to terminate perfusion and the right hemisphere was isolated on ice before being subjected to capillary depletion. Aliquots of homogenates, supernatants, pellets and perfusates were taken to measure their contents in [^125I]-conjugates by TCA precipitation and to evaluate the apparent volume of distribution.

[4] = test system: SK-HEP-1 cells; assay: in vitro cell proliferation assay ([3H]-thymidine incorporation), SK-HEP-1
Procedure: as §1

[5] = plasma kinetics after bolus administration; type: in vivo, CD-1 mice; conditions: IV bolus, 20 mg/kg, mice
Procedure: FIG. 8 describes the plasma kinetics of Etop-An2(3:1) following administration as a bolus. Radiolabeled (^125I) Etop-An2 (20 mg/kg) was injected in bolus by intravenous (i.v.) or intraperitoneal (i.p.) routes in CD-1 mice weighing about 25-30 g. The injection solution was composed of 12.5% dimethylsulfoxide (DMSO), 12.5% anhydrous ethanol 25% polyethylene glycol 400 (PEG400) and 50% NaCl/Glycine buffer. At several time intervals (0.5, 1, 2, and 6 hours) the blood was collected by cardiac puncture and animals were sacrificed. After blood centrifugation, the plasma radioactivity was measured in a gamma counter (Wizard 1470 Automatic Gamma Counter). The radioactivity was interpreted as % of injected dose per gram of plasma. Results were plotted using GraphPad prism software and the area under the curve (AUC) for each injection mode was calculated. The bioavailability of intraperitoneal Etop-An2 conjugate was then estimated by dividing the AUC after i.p. injection by the AUC after i.v. injection.

[6] = tissue distribution after IV bolus; type: in vivo; conditions: thirty minutes after IV bolus, mice, FIG. 12
Procedure: The effect of conjugation of an agent to a vector on distribution of the agent or the pharmacokinetics of a polypeptide that is conjugated to an agent was evaluated by administering a labeled polypeptide or conjugate to an animal and measuring distribution of the polypeptide or conjugate to organs (e.g., using ^3H or ^125I labeled conjugates) to mice. Similar experiments can be performed with compounds that include any of polypeptides described herein (e.g., the polypeptides described in Table 1 such as AngioPep-3, AngioPep-4a, AngioPep-4b, AngioPep-5, AngioPep-6, and AngioPep-7, or analogs thereof). Here, the unconjugated anticancer agent and the conjugates were injected intravenously to mice as a bolus. Tissues were collected at different times (0.25, 0.5, 1, and 4 hrs) and homogenized. To quantify the amount of ^3H-labeled conjugate, tissue homogenates were digested with tissue solubilizer, and 10 mL of liquid scintillator was added to samples. The amount of the ^125I labeled conjugate, in the different tissues is measured after TCA precipitation. Radioactivity associated with the tissues is quantified. The area under the curve (AUC 0-4) is estimated using the Prism software and is plotted for the different tissues.
FIG. 11 compares the brain distribution of Etop-An2(3:1) versus unconjugated etoposide thirty minutes after IV bolus administration to mice.

[7] = test system: SK-HEP-1 cells
Procedure: as §1

[8] = test system: mouse brain; conditions: in vivo
Procedure: as §2, §3, §4

[9] = target: P-gp (Mus musculus, UniProt P21447)
P-gp, sequence (P21447 whole entry): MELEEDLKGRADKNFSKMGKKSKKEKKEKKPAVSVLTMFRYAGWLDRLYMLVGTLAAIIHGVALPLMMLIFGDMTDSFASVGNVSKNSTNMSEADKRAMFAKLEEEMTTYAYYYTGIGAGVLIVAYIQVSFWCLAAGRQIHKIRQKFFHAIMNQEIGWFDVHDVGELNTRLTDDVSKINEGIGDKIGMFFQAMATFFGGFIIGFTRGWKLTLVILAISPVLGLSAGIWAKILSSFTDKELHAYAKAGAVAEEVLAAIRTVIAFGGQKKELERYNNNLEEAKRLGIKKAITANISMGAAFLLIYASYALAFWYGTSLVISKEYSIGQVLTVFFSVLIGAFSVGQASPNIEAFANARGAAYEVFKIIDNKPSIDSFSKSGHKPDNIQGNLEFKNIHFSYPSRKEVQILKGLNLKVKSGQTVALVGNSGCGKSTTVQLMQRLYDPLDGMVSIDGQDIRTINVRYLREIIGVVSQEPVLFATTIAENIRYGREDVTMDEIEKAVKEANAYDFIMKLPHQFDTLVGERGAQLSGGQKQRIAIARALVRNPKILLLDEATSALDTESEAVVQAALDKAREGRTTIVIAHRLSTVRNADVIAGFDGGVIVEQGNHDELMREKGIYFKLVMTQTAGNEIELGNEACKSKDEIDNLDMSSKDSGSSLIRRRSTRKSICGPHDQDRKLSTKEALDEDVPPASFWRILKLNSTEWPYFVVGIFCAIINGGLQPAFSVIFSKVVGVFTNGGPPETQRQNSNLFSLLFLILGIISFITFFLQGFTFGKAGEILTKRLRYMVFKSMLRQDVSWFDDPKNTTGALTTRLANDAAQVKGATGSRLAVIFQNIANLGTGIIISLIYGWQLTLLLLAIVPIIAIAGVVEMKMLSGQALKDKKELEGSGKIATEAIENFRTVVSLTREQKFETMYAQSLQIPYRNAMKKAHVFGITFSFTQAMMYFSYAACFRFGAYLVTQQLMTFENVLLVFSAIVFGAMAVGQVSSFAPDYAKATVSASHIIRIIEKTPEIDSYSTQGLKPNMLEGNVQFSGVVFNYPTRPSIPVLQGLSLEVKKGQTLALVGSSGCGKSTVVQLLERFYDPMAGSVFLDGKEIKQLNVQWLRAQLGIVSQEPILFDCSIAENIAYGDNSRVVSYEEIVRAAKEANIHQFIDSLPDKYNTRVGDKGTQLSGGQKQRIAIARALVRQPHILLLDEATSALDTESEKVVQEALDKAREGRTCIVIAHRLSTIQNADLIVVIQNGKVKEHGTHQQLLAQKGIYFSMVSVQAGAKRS
Procedure: as §2
Briefly, the right common carotid of ketamine/xylazine (140/8 mg/kg i.p.) anesthetized mice was exposed and ligated at the level of the bifurcation of the common carotid, rostral to the occipital artery. The common carotid was then catheterized rostrally with polyethylene tubing filled with heparin (25 U/mL) and mounted on a 26-gauge needle. The syringe containing the perfusion fluid ([^125I]-polypeptides or [^14C]-inulin in Krebs/bicarbonate buffer at a pH7.4 gassed with 95% O2 and 5% CO2) was placed in an infusion pump (Harvard pump PHD 2000; Harvard Apparatus) and connected to the catheter. Prior to the perfusion, the contralateral blood flow contribution was eliminated by severing heart ventricles. The brain was perfused for the indicated times at a flow rate of 1.15 mL/min. After 14.5 min of perfusion, the brain was further perfused for 60 seconds with Krebs buffer to wash the excess of [^125I]-proteins. Mice were then decapitated to terminate perfusion and the right hemisphere was isolated on ice before being subjected to capillary depletion. […]

[10] = test system: U87 cells in nude mice brain; assay: intracerebral human brain tumor model (U87), survival; type: in vivo; conditions: doxorubicin 6 mg/kg, (DoxSu)3-An2 40 mg/kg i.v. 1× per week
Procedure: The intracerebral human brain tumor model was established by stereotactic inoculation of 5×10^5 U87 cells in nude mice brain. Female athymic nude mice (Crl:Nu/Nu-nuBR; 20-25 g, 4-6 weeks old; Charles River Canada, St-Constant, QC) were used for tumor models and were maintained in a pathogen-free environment. One hour before surgery, mice received a subcutaneous injection of buprenorphine (0.1 mg kg^−1). For tumor cell inoculation, mice were anesthetized by i.p. injection of ketamine/xylazine (120/10 mg kg^−1) and placed in a stereotactic apparatus (Kopf; Tujunga, Calif.). A burr hole was drilled 1.5 mm anterior and 2.5 mm lateral to the bregma. The cell suspension in 5 μL of serum free cell culture medium was injected over a 5 minute period using a Hamilton syringe at a depth of 3.5 mm.
Drug treatment started 3 days post-inoculation (Table 8). […] Drug solutions were prepared in dextrose 5% water (D5W). Injection solutions were freshly prepared before each administration. Clinical signs of disease progression and body weights were monitored everyday. When mice reached terminal endpoints (20% of decrease in body weight), they were sacrificed by carbon dioxide asphyxiation.

[11] = literature data (Reddy et al. 2005); cited from earlier work
[12] = Homo sapiens, U-87 MG, Table 5, incubation 48 to 72 hrs, read-out: IC50 (nM) Glioblastoma (U87)
[13] = Homo sapiens, SK-HEP1, read-out: IC50 (nM) Hepatocarcinoma (SK-Hep-1)

## COc1cc(C2c3cc4c(cc3[C@@H](O[C@@H]3O[C@@H]5CO[C@@H](C)O[C@H]5[C@H](O)[C@H]3O)[C@H]3COC(=O)[C@H]23)OCO4)cc(OC)c1OC(=O)CN(C)C (stereo partly drawn) [EtopDMG, Etoposide 4′-Dimethylglycine]
[1]; [12]
  IC50: 145 nM
[2]; Homo sapiens, NCI-H460
  IC50: 90 nM
[3]
  Brain Kin: 9e-05 mL/s/g
[4]; [13]
  IC50: 62 nM

## COc1cc([C@@H]2c3cc4c(cc3[C@@H](O[C@@H]3O[C@@H]5CO[C@@H](C)O[C@H]5[C@H](O)[C@H]3OC(=O)CCCC(=O)NCCCC[C@H](NC(=O)CNC(=O)[C@H](CCCNC(=N)N)NC(=O)[C@H](CO)NC(=O)CNC(=O)CNC(=O)[C@H](Cc3ccc(O)cc3)NC(=O)[C@H](Cc3ccccc3)NC(=O)[C@H](Cc3ccccc3)NC(=O)[C@@H](NC(=O)CCCC(=O)O[C@H]3[C@H](O[C@@H]5c6cc7c(cc6[C@@H](c6cc(OC)c(O)c(OC)c6)[C@H]6C(=O)OC[C@@H]65)OCO7)O[C@@H]5CO[C@@H](C)O[C@H]5[C@@H]3O)[C@@H](C)O)C(=O)N[C@@H](CCCNC(=N)N)C(=O)N[C@@H](CC(N)=O)C(=O)N[C@@H](CC(N)=O)C(=O)N[C@@H](Cc3ccccc3)C(=O)N[C@@H](CCCCNC(=O)CCCC(=O)O[C@H]3[C@H](O[C@@H]5c6cc7c(cc6[C@@H](c6cc(OC)c(O)c(OC)c6)[C@H]6C(=O)OC[C@@H]65)OCO7)O[C@@H]5CO[C@@H](C)O[C@H]5[C@@H]3O)C(=O)N[C@H](C(=O)N[C@@H](CCC(=O)O)C(=O)N[C@@H](CCC(=O)O)C(=O)N[C@@H](Cc3ccc(O)cc3)C(=O)O)[C@@H](C)O)[C@H]3COC(=O)[C@H]23)OCO4)cc(OC)c1O [Etop-An2(3:1), ((2″-Glutaryl)-Etop)3-(Angiopep2)]
[1]; U-87 Cells, 24 hours, read-out: IC50 (nM) 24 hours
  IC50: 453 nM
[1]; U-87 Cells, 48 hours, read-out: IC50 (nM) 48 hours
  IC50: 151 nM
[1]; U-87 Cells, 72 hours, read-out: IC50 (nM) 72 hours
  IC50: 164 nM
[5]
  AUC0-∞ (hr°μg/mL): 82 hr°μg/mL
  Elim. Rate Const.: 1.6 h⁻¹
  T1/2α: 25.8 min
[6]
  concentration in the tissues studied versus unconjugated etoposide: increased concentration in the tissues studied
[7]
  IC50: 59 nM
[8]
  Vd (slope) relative to the corresponding unconjugated drug: higher
[9]
  P-gp substrate status: not a P-gp substrate
[4]; read-out: IC50 (nM) 24 hours, SK-HEP-1, 24 hours
  IC50: 160 nM
[4]; read-out: IC50 (nM) 72 hours, SK-HEP-1, 72 hours
  IC50: 52 nM

## COc1cccc2c1C(=O)c1c(O)c3c(c(O)c1C2=O)C[C@@](O)(C(=O)CO)C[C@@H]3O[C@H]1C[C@H](N)[C@H](O)[C@H](C)O1 [Doxorubicin, doxorubicin]
[1]; [12]
  IC50: 18 nM
[2]; Homo sapiens, NCI-H460
  IC50: 11 nM
[10]; Trial 1
  Survival (days) Mean Trial 1: 20.6 days
[10]; Trial 1, treatment from 3 days post-inoculation
  Survival (days) Median Trial 1: 21 days
[10]; Trial 2
  Survival (days) Median Trial 2: 23 days
[8]; pH 7.4
  Brain Kin: 0.00028 mL/s/g
[4]; [13]
  IC50: 10 nM

## (Etoposide-4′-Dimethylglycine-2″-Glutaric)3-Angiopep-2 Conjugate [EtopDMG-An2(3:1)]
[1]; Table 5, incubation 48 to 72 hrs, read-out: IC50 (nM) Glioblastoma (U87)
  IC50: 330 nM
[2]
  IC50: 148 nM
[4]; read-out: IC50 (nM) Hepatocarcinoma (SK-Hep-1), Table 5, incubation 48 to 72 hrs
  IC50: 48 nM

## COc1cc([C@@H]2c3cc4c(cc3[C@@H](O[C@@H]3O[C@@H]5CO[C@@H](C)O[C@H]5[C@H](O)[C@H]3O)[C@H]3COC(=O)[C@H]23)OCO4)cc(OC)c1O [Etoposide]
[1]; Homo sapiens, U-87 MG, U-87 Cells, 24 hours, read-out: IC50 (nM) 24 hours
  IC50: 160 nM
[1]; Homo sapiens, U-87 MG, U-87 Cells, 48 hours, read-out: IC50 (nM) 48 hours
  IC50: 221 nM
[1]; Homo sapiens, U-87 MG, U-87 Cells, 72 hours, read-out: IC50 (nM) 72 hours
  IC50: 145 nM
[7]
  IC50: 56 nM
[11]
  T1/2α: 7.8 min
[4]; Homo sapiens, SK-HEP1, 24 h, read-out: IC50 (nM) 24 hours
  IC50: 116 nM
[4]; Homo sapiens, SK-HEP1, 72 h, read-out: IC50 (nM) 72 hours
  IC50: 50 nM
